# How the values were obtained:
# Assay type in all cases: in vivo
# Boophilus microplus = Boophilus microplus injection test (BOOPMI Injection); conditions: Rhipicephalus microplus, 168 h, injection into adult engorged female ticks, egg deposition after 7 days, read-out: activity (efficacy, infertile eggs); for pest or weed control at 0.004 mg: 4 μg/animal; for pest or weed control at 0.02 mg: 20 μg/animal
# Outline: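 Adult engorged female ticks (5 per group) injected into the abdomen with 1 μL compound in DMSO, then held in a climate chamber. Fertile egg deposition scored after 7 days, with unclear eggs kept until hatching (~42 days). Efficacy 100% = all eggs infertile, 0% = all fertile.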
# [1] = system: Rhipicephalus microplus (strain Parkhurst, resistant against synthetic pyrethroids); assay: Rhipicephalus microplus in-vitro contact test, larval cattle tick (BOOPMI Contact); conditions: 5 μg/cm^2 (=500 g/ha), after 48 hours, read-out: activity (efficacy, larvae dead or moribund)
# Outline: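 Efficacy, expressed as percentage of larvae dead or moribund, is judged by negative geotactic behaviour 48 h after larvae (20-50 per tube) enter tubes whose inner walls carry a dried acetone film of compound, 5 μg/cm² at 900 ppm. Incubation: horizontal, 27 °C, 85% relative humidity.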
# Ctenocephalides felis [2] = assay: Ctenocephalides felis in-vitro contact test, adult cat flea; conditions: 5 μg/cm^2 (=500 g/ha), after 48 hours, read-out: activity (efficacy, fleas dead or moribund)
# Protocol: Ctenocephalides felis—in-Vitro Contact Tests Adult Cat Flea
# (§1) 9 mg compound is solved in 1 ml acetone and diluted with acetone to the desired concentration. 250 of the test solution is filled in 25 ml glass test tubes and homogeneously distributed on the inner walls by rotation and tilting on a shaking device (2 h at 30 rpm). With a compound concentration of 900 ppm, an inner surface of 44.7 cm^2 and a homogeneous distribution, a dose of 5 μg/cm^2 is achieved.
# (§2) After the solvent has evaporated, each test tube is filled with 5-10 adult cat fleas (Ctenocephalides felis), closed with a perforated lid and incubated in a lying position at room temperature and relative humidity. After 48 hours efficacy is determined. The fleas are patted on the ground of the tubes and are incubated on a heating plate at 45-50° C. for at most 5 minutes Immotile or uncoordinated moving fleas, which are not able to escape the heat by climbing upwards, are marked as dead or moribund.
# An efficacy of 100% means all fleas are dead or moribund; 0% means no fleas are dead or moribund.
# Ctenocephalides felis [3] = assay: Ctenocephalides felis oral test (CTECFE); conditions: 48 h, 100 ppm in cattle blood, after 2 days
# Outline: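 About 20 adult unfed fleas fed through parafilm on cattle blood held at 37° C and dosed with compound from a DMSO concentrate; flea chamber at room temperature. Percent mortality scored after 2 days.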
# Rhipicephalus sanguineus = Rhipicephalus sanguineus in-vitro contact test, adult brown dog ticks (RHIPSA Contact); conditions: 5 μg/cm^2 (=500 g/ha), after 48 hours, read-out: activity (efficacy, ticks dead or moribund)
# Protocol: Rhipicephalus sanguineus—in-Vitro Contact Tests with Adult Brown Dog Ticks (RHIPSA Contact)
# as §1, with “250 μl_,” for “250”
# as §2, with “brown dog ticks (Rhipicephalus sanguineus),” for “cat fleas (Ctenocephalides felis),”, “ticks” for “fleas”, “ticks,” for “fleas,”
# An efficacy of 100% means all ticks are dead or moribund; 0% means no ticks are dead or moribund.
# Diabrotica balteata = Diabrotica balteata spray test; conditions: 168 h, wheat seeds, after 7 days, read-out: activity (efficacy, seedlings grown); for pest or weed control at 160 µg/disc, 500 g/ha: 500 g/ha (=160 μg/well)
# Outline: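 Efficacy was read 7 days after infesting each unit with 10–20 banded cucumber beetle larvae, as % of seedlings growing like untreated, uninfested controls. Before infestation, wheat seeds germinated 1 day on agar (5 per well) were sprayed with the active ingredient. The active was formulated in acetone/DMF and diluted in water containing emulsifier.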
# Spodoptera frugiperda = Spodoptera frugiperda spray test; conditions: in Zea mays, 168 h, read-out: activity (mortality)
# Outline: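 Larvae of fall armyworm placed on dried maize leaf sections previously sprayed with emulsified compound (acetone/DMF solvent, water with 1000 ppm emulsifier). Percent of caterpillars killed recorded on day 7, 0–100% scale.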
# Myzus persicae = Myzus persicae oral test; conditions: 120 h, after 5 days
# Protocol: Solvent: 100 parts by weight acetone
# Afterwards the plates are sealed with parafilm through which a mixed population of the green peach aphid (Myzus persicae) can suck on the compound preparation.
# After 5 days mortality in % is determined. 100% means all aphids have been killed and 0% means none of the aphids have been killed.
SMILES,pest or weed control at 0.004 mg (Boophilus microplus) [%],pest or weed control at 0.02 mg (Boophilus microplus) [%],pest or weed control at 5 µg/cm2 [1] [%],"pest or weed control at 5 µg/cm2, 5 µg/cm2 (Ctenocephalides felis [2]) [%]",mortality at 100 ppm (Ctenocephalides felis [3]) [%],"pest or weed control at 5 µg/cm2, 5 µg/cm2 (Rhipicephalus sanguineus) [%]",pest or weed control at 100 g/ha (Diabrotica balteata) [%],mortality at 100 g/ha (Spodoptera frugiperda) [%],"pest or weed control at 160 µg/disc, 500 g/ha (Diabrotica balteata) [%]",mortality at 500 g/ha (Spodoptera frugiperda) [%],mortality at 4 ppm (Myzus persicae) [%]
"C[C@H](Nc1nc2cc(C(F)(F)F)cc(Cl)c2o1)c1ncnn1-c1ncc(Cl)cn1 [Example I-036, 7-chloro-N-{(1S)-1-[1-(5-chloropyrimidin-2-yl)-1H-1,2,4-triazol-5-yl]ethyl}-5-(trifluoromethyl)-1,3-benzoxazol-2-amine]",100,100,100,80,100,100,100,100,,,
"Cc1cnc(-n2ncnc2[C@H](C)Nc2nc3cc(C(F)(F)F)cc(Cl)c3o2)nc1 [Example I-040, 7-Chlor-N-{(1S)-1-[1-(5-methylpyrimidin-2-yl)-1H-1,2,4-triazol-5-yl]ethyl}-5-(trifluormethyl)-1,3-benzoxazol-2-amin]",100,,90,100,100,100,100,,,,
"C[C@H](Nc1nc2cc(C(F)(F)F)cc(Cl)c2o1)c1ncnn1-c1ncc(F)cn1 [Example I-045, 7-Chlor-N-{(1S)-1-[1-(5-fluorpyrimidin-2-yl)-1H-1,2,4-triazol-5-yl]ethyl}-5-(trifluormethyl)-1,3-benzoxazol-2-amin]",100,100,80,100,100,100,100,100,100,100,
"C[C@H](Nc1nc2cc(C(F)(F)F)c(Cl)cc2o1)c1ncnn1-c1ncc(Br)cn1 [Example I-062, N-{(1S)-1-[1-(5-Brompyrimidin-2-yl)-1H-1,2,4-triazol-5-yl]ethyl}-6-chlor-5-(trifluormethyl)-1,3-benzoxazol-2-amin]",100,100,100,100,,100,100,100,100,100,
"C[C@H](Nc1nc2cc(C3CC3)cc(Cl)c2o1)c1ncnn1-c1ncccn1 [Example I-065, 7-Chlor-5-cyclopropyl-N-{(1S)-1-[1-(pyrimidin-2-yl)-1H-1,2,4-triazol-5-yl]ethyl}-1,3-benzoxazol-2-amin]",100,100,,100,100,100,100,,100,,
"Cc1nc([C@H](C)Nc2nc3cc(Cl)cc(C(F)(F)F)c3o2)n(-c2ccc(C(F)(F)F)cn2)n1 [Example I-086, 5-Chlor-N-[(1S)-1-{3-methyl-1-[5-(trifluormethyl)pyridin-2-yl]-1H-1,2,4-triazol-5-yl}ethyl]-7-(trifluormethyl)-1,3-benzoxazol-2-amin]",,,90,,,,,,,,90
"C[C@H](Nc1nc2cc(C(F)(F)F)c(Cl)cn2n1)c1ncnn1-c1ncccn1 [Example I-096, 6-chloro-N-{(1S)-1-[1-(pyrimidin-2-yl)-1H-1,2,4-triazol-5-yl]ethyl}-7-(trifluoromethyl)[1,2,4]triazolo[1,5-a]pyridin-2-amine]",,,90,100,100,100,,,,,
"C[C@H](Nc1nc2cc(C(F)(F)F)c(Cl)cc2o1)c1nc(C2CC2)nn1-c1ccc(C#N)cn1 [Example I-100, 6-{5-[(1S)-1-{[6-chloro-5-(trifluoromethyl)-1,3-benzoxazol-2-yl]amino}ethyl]-3-cyclopropyl-1H-1,2,4-triazol-1-yl}pyridine-3-carbonitrile]",,,,,,,100,100,,,90

# Reference: patent publication US12384769B2, “Heteroaryl-substituted aminoalkyl azole compounds as pesticides” (Elanco Animal Health GmbH, priority 2019, dated 2025)
